“Also recorded” adds a separate entry of the source.

One series can be described thus: P800 plasma. The settings on record: human, RT (25 ± 1°C), up to 96 hours.
For series [1] the following is noted: in vivo circulation; cited from earlier work.
The nature of series [2]: conventional serum sample. The settings on record: human, RT (25 ± 1°C), up to 96 hours.
The nature of the next series: EDTA plasma. The settings on record: human, RT (25 ± 1°C), up to 96 hours.
The next series is described as follows: heparin-plasma. To be noted: human, RT (25 ± 1°C).
A further series in a line: citrate-plasma. The settings on record: human, RT (25 ± 1°C).
The subject of the next series is purified DPP-IV enzyme. The experiment in a line: 50 mM HEPES buffer (pH7.5). To be noted: 37°C, up to 48 hours.

As to HSQGTFTSDYSKYLDSRRAQDFVQWLMNTKRNKNNIA, in “P800 plasma”, the not cleaved entry is “fragments not detectable during 3-day incubation; full-length OXM stabilized for more than three days”.

As to `CC[C@H](C)[C@H](NC(=O)[C@H](CO)NC(=O)[C@H](Cc1ccc(O)cc1)NC(=O)[C@H](CC(=O)O)NC(=O)[C@H](CO)NC(=O)[C@@H](NC(=O)[C@H](Cc1ccccc1)NC(=O)[C@@H](NC(=O)CNC(=O)[C@H](CCC(=O)O)NC(=O)[C@H](C)NC(=O)[C@@H](N)Cc1ccc(O)cc1)[C@@H](C)O)[C@@H](C)CC)C(=O)N[C@@H](C)C(=O)N[C@@H](CCSC)C(=O)N[C@@H](CC(=O)O)C(=O)N[C@@H](CCCCN)C(=O)N[C@H](C(=O)N[C@@H](Cc1c[nH]cn1)C(=O)N[C@@H](CCC(N)=O)C(=O)N[C@@H](CCC(N)=O)C(=O)N[C@@H](CC(=O)O)C(=O)N[C@@H](Cc1ccccc1)C(=O)N[C@H](C(=O)N[C@@H](CC(N)=O)C(=O)N[C@@H](Cc1c[nH]c2ccccc12)C(=O)N[C@@H](CC(C)C)C(=O)N[C@@H](CC(C)C)C(=O)N[C@@H](C)C(=O)N[C@@H](CCC(N)=O)C(=O)N[C@@H](CCCCN)C(=O)NCC(=O)N[C@@H](CCCCN)C(=O)N[C@@H](CCCCN)C(=O)N[C@@H](CC(N)=O)C(=O)N[C@@H](CC(=O)O)C(=O)N[C@@H](Cc1c[nH]c2ccccc12)C(=O)N[C@@H](CCCCN)C(=O)N[C@@H](Cc1c[nH]cn1)C(=O)N[C@@H](CC(N)=O)C(=O)N[C@H](C(=O)N[C@H](C(=O)N[C@@H](CCC(N)=O)C(=O)O)[C@@H](C)O)[C@@H](C)CC)C(C)C)[C@@H](C)CC` [GIP(1–42), glucose-dependent insulinotropic polypeptide], in series [1], the half-life in circulation is about 5 min.

As to glucagon-like peptide 1 [GLP-1], the half-life in circulation entry in series [1] is given as “approximately 2 minutes”.

HA/EGTFTSDVSSYLEGQAAKEFIAWLVKGR-OH: the cleaved bond result was “A8-E9, 30 minutes; also recorded: G35-R36, 30 minutes” in series [2] and “A8-E9, 30 minutes” in “EDTA plasma”.

For HA/EGTFTSDVSSYLEGQAAKEFIAWLVKGRG, the cleaved bond entry is “A8-E9, minor, after 3-day incubation” in the series “P800 plasma”; “A8-E9, major, 1h” in “EDTA plasma”; “A8-E9, major” in the series “heparin-plasma”; “A8-E9, major” in “citrate-plasma”.

As for “YA/EGTFISDYSIAMDKIHQQDFVNWLLAQKGKKNDWKHNITQ”, the cleaved bond result in series [2] was “A2-E3, major”; in the series “EDTA plasma” it was “A2-E3, major, two hours”. Further, the not cleaved result in “P800 plasma” is given as “without any GIP degradation fragments detectable during 4-day incubation at RT; t½ > 96 hours”.

For HS/QGTFTSDYSKYLDSRRAQDFVQWLMNTKRNRNNIA, in the series with purified DPP-IV enzyme, the cleaved bond entry is given as “S2-Q3, first_seen, 24 hours; also recorded: G4-T5, 48 h”.

Regarding HA/EGTFTSDVSSYLEGQAAKEFIAWLVKGR-NH2, the cleaved bond result is “A8-E9, major, 30 minutes” in series [2]; “A8-E9, minor, after 3-day incubation” in “P800 plasma”; “A8-E9, major, 30 minutes” in the series “EDTA plasma”; “A8-E9, major” in the series “heparin-plasma”; “A8-E9, major, 30 minutes” in the series “citrate-plasma”. In addition, the not cleaved entry in series [2] is reported as “no G36A-1C”.

The record behind these values is article PMC4519045 (PLoS ONE, 2015).
